For orientation: IC50 means the point on the concentration scale where inhibition reaches its midpoint. Read a high IC50 as a need for much substance.

The values that follow come from US20080114008A1, “Quinazoline Derivatives as Antiviral Agents” (ARROW THERAPEUTICS LIMITED, priority 2005, published 2008).

Data set [1] deals with HCV replicon cells Huh 9B. In words: Tox assay (methylene blue staining of replicon cells). To be noted: Huh 9B replicon cells, 72 h incubation, methylene blue absorbance at 620 nm. It is filed as cell-based. On the procedure:
(§1) HCV replicon cells Huh 9B (ReBlikon), containing the firefly luciferase—ubiquitin—neomycin phosphotransferase fusion protein and EMCV-IRES driven HCV polyprotein with cell culture adaptive mutations.
(§2) Cells were cultured at 37° C. in a 5% CO2 environment and split twice a week on seeding at 2×10E6 cells/flask on day 1 and 1×10E6 3 days later. Some 0.25 mg/ml G418 was added to the culture medium (125 ul per 25 ml) but not the assay medium.
(§3) The culture medium consisted of DMEM with […] glucose and glutamax (Gibco 61965-026) supplemented with 1× non-essential amino acids, penicillin (100 IU/ml) / streptomycin (100 μg/ml), FCS (10%, 50 ml) and 1 mg/ml G418 (Invitrogen cat no 10131-027) & 10% foetal calf serum.
(§4) A flask of cells was trypsinised and a cell count carried out. Cells were diluted to 100,000 cells/ml and 100 μl of this used to seed one opaque white 96-well plate (for the replicon assay) and one flat-bottomed clear plate (for the tox assay) for every seven compounds to be tested for IC50. Wells G12 and H12 were left empty in the clear plate as the blank. Plates were then incubated at 37° C. in a 5% CO2 environment for 24 h.
(§5) On the following day compound dilutions are made up in medium at twice their desired final concentration in a clear round bottomed plate. All dilutions have a final DMSO concentration of 1%.
Once the dilution plate had been made up, controls and compounds were transferred to the assay plate (containing the cells) at 100 μl/well in duplicate plates. Exception: in the white (replicon) plate, no compound was added to wells A1 and A2 and 100 μl of 1% DMSO was added to these instead. In the clear (Tox) plate, wells E12 & F12 only contained the DMSO control. […]
The clear plate was stained with 100 μl 0.5% methylene blue in 50% ethanol at RT for 1 h, followed by solvation of the absorbed methylene blue in 100 μl per well of 1% lauroylsarcosine. Absorbance of the plate was measured on a microplate spectrophotometer (Molecular Devices) and the absorbance for each concentration of compound expressed as a proportion of the relative DMSO control. […]

The test system of data set [2] is HCV replicon cells Huh 9B. In words: HCV replicon luciferase assay. It counts as cell-based. To be noted: Hepatitis C virus; Huh 9B replicon cells, 72 h incubation, luciferase readout. On the procedure: as §1, §2, §3, §4, §5
Once the dilution plate had been made up, controls and compounds were transferred to the assay plate (containing the cells) at 100 μl/well in duplicate plates. Exception: in the white (replicon) plate, no compound was added to wells A1 and A2 and 100 μl of 1% DMSO was added to these instead. In the clear (Tox) plate, wells E12 & F12 only contained the DMSO control. Plates were then incubated at 37° C. with 5% CO2 for 72 h.
At the end of the incubation time, the cells in the white plate were harvested by washing with 200 μl/well of warm (37° C.) PBS and lysed with 20 μl cell culture lysis buffer (Promega). […]
Background: Replicon systems follow genome replication, usually without infectious particles.

As for `c1nc(Nc2ccc(N3CCOCC3)cc2)c2cc(-c3ccc4ncnc(Nc5ccc(N6CCOCC6)cc5)c4c3)ccc2n1` [Example 1, N-(4-morpholinophenyl)-6-(4-(4-morpholinophenylamino)quinazolin-6-yl)quinazolin-4-amine], the “Replicon TD50” value in data set [1] is given as “*** (>25 uM = ***)”. Also, the IC50 in data set [2] is under 1000 nM.

With `c1ccc(Nc2ncnc3ccc(-c4ccc5ncnc(Nc6ccc(N7CCOCC7)cc6)c5c4)cc23)cc1` [Example 2, N*4*-(4-Morpholin-4-yl-phenyl)-N*4′*-phenyl-[6,6′]biquinazolinyl-4,4′-diamine], the “Replicon TD50” value in data set [1] is reported as “*** (>25 uM = ***)”. This molecule also gave an IC50 in data set [2] of under 1000 nM.

`c1nc(Nc2ccc(-n3cncn3)cc2)c2cc(-c3ccc4ncnc(Nc5ccc(-n6cncn6)cc5)c4c3)ccc2n1` [Example 3, N*4*,N*4′*-Bis-(4-[1,2,4]triazol-1-yl-phenyl)-[6,6′]biquinazolinyl-4,4′-diamine]: the “Replicon TD50” value in data set [1] is recorded as “*** (>25 uM = ***)”. This molecule returned an IC50 in data set [2] of under 1000 nM.
